Values quoted from earlier work, collected in patent US20110195988A1, “Pharmaceutical Composition” (Special Products Limited, priority 2010, published 2011).

Conditions: oral formulations of morphine

## CN1CC[C@]23c4c5ccc(O)c4O[C@H]2[C@@H](O)C=C[C@H]3[C@H]1C5 [morphine]
  time after administration at which the analgesic effect is observed: around 30 minutes
